From patent publication US10087166B2, “Cyclic amine azaheterocyclic carboxamides” (Merck Patent GmbH, priority 2010, dated 2018)

What follows are compounds tested against T1, P70S6K (Homo sapiens, UniProt P23443, T412E) (assay: P70S6K enzyme assay). Conditions: P70S6K T412E mutant 3 nM, 24 μM ATP, FITC-AHA-AKRRRLSSLRA-OH substrate, 90 min at 25° C.; read-out: IC50p70S6K.
T1 construct: purchased Millipore
Format: biochemical
How it was run: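 T412E mutant enzyme (3 nM) with 24 μM ATP and 1 μM FITC-labelled S6-derived peptide in Hepes pH 7.5, MgCl2, DTT, Brij; 90 min at 25° C, EDTA stop. Phosphorylated product and substrate separated by microfluidic mobility shift; IC50 determined.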

T1 sequence (P23443 whole entry T412E): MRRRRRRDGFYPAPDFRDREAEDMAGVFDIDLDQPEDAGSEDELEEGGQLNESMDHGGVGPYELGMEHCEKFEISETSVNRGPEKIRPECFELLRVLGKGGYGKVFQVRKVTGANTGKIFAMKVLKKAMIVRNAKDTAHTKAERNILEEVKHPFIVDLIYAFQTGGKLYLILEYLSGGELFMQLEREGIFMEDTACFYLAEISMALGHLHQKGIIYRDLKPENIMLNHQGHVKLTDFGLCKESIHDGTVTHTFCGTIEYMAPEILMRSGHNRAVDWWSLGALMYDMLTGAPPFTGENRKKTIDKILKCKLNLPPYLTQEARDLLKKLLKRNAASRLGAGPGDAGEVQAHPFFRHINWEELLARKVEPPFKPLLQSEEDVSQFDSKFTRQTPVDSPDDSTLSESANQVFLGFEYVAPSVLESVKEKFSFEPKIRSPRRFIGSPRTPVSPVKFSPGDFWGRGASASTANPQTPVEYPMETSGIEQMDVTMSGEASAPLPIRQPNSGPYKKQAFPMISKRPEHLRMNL

Row | Structure (SMILES) | IC50 [nM]
1 | NC(=O)c1cccc2c(N[C@@H]3CNC[C@H]3c3ccc4c(c3)CCO4)ncnc12 [compound 91, 4-(((3S,4R)-4-(2,3-dihydrobenzofuran-5-yl)pyrrolidin-3-yl)amino)quinazoline-8-carboxamide] | 53
2 | Cc1c(F)cccc1[C@@H]1CNC[C@H]1Nc1ncnc2c(C(N)=O)cccc12 [compound 94, 4-(((3S,4R)-4-(3-fluoro-2-methylphenyl)pyrrolidin-3-yl)amino)quinazoline-8-carboxamide] | 52
3 | COc1ccc([C@H]2CNC[C@@H]2Nc2ncnc3c(C(N)=O)cccc23)cc1 [compound 97, 4-(((3R,4S)-4-(4-methoxyphenyl)pyrrolidin-3-yl)amino)quinazoline-8-carboxamide] | 81
4 | NC(=O)c1cccc2c(N[C@@H]3CNC[C@H]3c3ccc(Cl)c(F)c3)ncnc12 [compound 101, 4-(((3S,4R)-4-(4-chloro-3-fluorophenyl)pyrrolidin-3-yl)amino)quinazoline-8-carboxamide] | 1.1
5 | NC(=O)c1cccc2c(N[C@H]3CNC[C@@H]3c3ccc(Cl)c(F)c3)ncnc12 [compound 112, 4-(((3R,4S)-4-(4-chloro-3-fluorophenyl)pyrrolidin-3-yl)amino)quinazoline-8-carboxamide] | 330
6 | NC(=O)c1cccc2c(N[C@@H]3CNCC[C@H]3c3ccc(C(F)(F)F)cc3)ncnc12 [compound 128] | 230
7 | NC(=O)c1cccc2c(N[C@H]3CNCC[C@@H]3c3ccc(C(F)(F)F)cc3)ncnc12 [compound 129, 4-(((3R,4R)-4-(4-(trifluoromethyl)phenyl)piperidin-3-yl)amino)quinazoline-8-carboxamide] | 1.2
8 | NC(=O)c1cccc2c(N[C@@H]3CNCC[C@H]3c3cccc(C(F)(F)F)c3)ncnc12 [compound 131, 4-(((3S,4S)-4-(3-(trifluoromethyl)phenyl)piperidin-3-yl)amino)quinazoline-8-carboxamide] | 160

Continued by falling IC50, values first:

Row | IC50 [nM] | Structure (SMILES)
9 | 48 | NC(=O)c1cccc2c(N[C@H]3CNC[C@@H]3c3cccc(Cl)c3)ncnc12 [compound 95, 4-(((3R,4S)-4-(3-chlorophenyl)pyrrolidin-3-yl)amino)quinazoline-8-carboxamide]
10 | 4.1 | COc1ccc([C@@H]2CNC[C@H]2Nc2ncnc3c(C(N)=O)cccc23)cc1 [compound 96, 4-(((3S,4R)-4-(4-methoxyphenyl)pyrrolidin-3-yl)amino)quinazoline-8-carboxamide]
11 | 4 | NC(=O)c1cccc2c(N[C@H]3CNC[C@@H]3c3ccc4c(c3)CCO4)ncnc12 [compound 90, 4-(((3R,4S)-4-(2,3-dihydrobenzofuran-5-yl)pyrrolidin-3-yl)amino)quinazoline-8-carboxamide]
12 | 2.8 | NC(=O)c1cccc2c(N[C@@H]3CNC[C@H]3c3cc(F)c(F)cc3F)ncnc12 [compound 106, 4-(((3S,4R)-4-(2,4,5-trifluorophenyl)pyrrolidin-3-yl)amino)quinazoline-8-carboxamide]
13 | 1.2 | Cc1c(F)cccc1[C@H]1CNC[C@@H]1Nc1ncnc2c(C(N)=O)cccc12 [compound 93, 4-(((3R,4S)-4-(3-fluoro-2-methylphenyl)pyrrolidin-3-yl)amino)quinazoline-8-carboxamide]
14 | 1.2 | NC(=O)c1cccc2c(N[C@H]3CNCC[C@@H]3c3cccc(C(F)(F)F)c3)ncnc12 [compound 130, 4-(((3R,4R)-4-(3-(trifluoromethyl)phenyl)piperidin-3-yl)amino)quinazoline-8-carboxamide]
